Measured values reported in paper PMC6797515, “Effects of Bakuchiol on chondrocyte proliferation via the PI3K‐Akt and ERK1/2 pathways mediated by the estrogen receptor for promotion of the regeneration of knee articular cartilage defects” (Cell Proliferation, 2019).

What was measured:
rat chondrocytes = assay: CCK8 cell viability / cytotoxicity assay; assay type: cell-based
Protocol: Rat chondrocytes were isolated using a method adapted from a previous study.9 Briefly, articular cartilage was retrieved from the knees of healthy Sprague-Dawley rats (male, n = 5, weight: 150 g). The cartilage was minced, and pieces digested with 2 mg/mL of collagenase type II (Gibco) for 2 hours. After removal of undigested tissue, the cells were cultured in DMEM/F12 (1:1) supplemented with 10% FBS. Passage 2-3 (P2-3) cells were used in the experimental studies. The bakuchiol was purchased from Selleck ([…]). Animal experiment protocol was reviewed and approved by the Institutional Review Board (IRB) of Chongqing University. Cell viability in response to BAK was evaluated using a cell counting kit-8 (CCK8) assay which was also utilized to assess cell viability. Cells were seeded at a density of 1 × 10^4 cells/well in a 24-well plate and the cytotoxicity of BAK tested using concentrations of 1 to 100 μmol/L for 3 days. The cells were then treated with 10 μmol/L BAK for 7 days. The cells were then washed with PBS and incubated in serum-free medium containing 10% CCK8 reagent for 2-3 hours at 37°C in an atmosphere containing 5% CO2. Aliquots were pipetted into a 96-well plate and absorbance at 490 nm measured using a plate reader (Bio-Rad).

chondrocytes = assay: EdU DNA proliferation assay; assay type: cell-based, rat; settings: 10 and 20 µmol/L, 24 and 48 hours
Protocol: Chondrocyte proliferation was quantified using an ethynyl deoxyuridine (EdU) DNA in vitro proliferation detection kit (Guangzhou RiboBio) using flow cytometry, in accordance with the manufacturer's instructions.14 Images of cells were captured by light with microscopy using Image‐Pro Plus 6.0 software (Media Cybernetics). The number of EdU‐labelled cells was calculated from fields randomly selected in each well. Numbers of cells in each phase of the cell cycle were calculated using a BD FACS Calibur Flow Cytometer at a 488 nm excitation wavelength.

CDK1 [1] = assay: qRT-PCR gene expression of CDK1; assay type: cell-based, rat; settings: 10 µmol/L, 48 hours
Excerpt: (§1) Cells were harvested using Trizol reagent (Invitrogen), followed by RNA isolation. Each sample was reverse transcribed to cDNA using a RevertAid First Strand cDNA Synthesis Kit (Thermo Fisher Scientific). The reverse transcription product was then used as a template to perform real‐time polymerase chain reaction (PCR) on a StepOne Plus thermal cycler (Applied Biosystems) using PowerUp™ SYBR™ Green Master Mix (Applied Biosystems), following the manufacturer's guidelines. The primers for CDK1 (F: 5′‐[…]‐3′; R: 5′‐[…]‐3′), E2F1 (F: 5′‐[…]‐3′; 5′‐[…]‐3′), MKI67 (F: 5′‐[…]‐3′; R: 5′‐[…]‐3′) were synthesized by Invitrogen. The final data were analysed by the 2^−ΔΔ ^C ^t method.

E2F1 [2] = assay: qRT-PCR gene expression of E2F1; assay type: cell-based, rat; settings: 10 µmol/L, 48 hours
Excerpt: as §1

MKI67 [3] = assay: qRT-PCR gene expression of MKI67; assay type: cell-based, rat; settings: 10 µmol/L, 48 hours
Excerpt: as §1

CDK1 [4] = assay: Western blotting for CDK1 protein; assay type: cell-based, rat; settings: for CDK1 protein levels in chondrocytes: inhibitor 1 µmol/L added to 10 µmol/L BAK
Protocol: (§2) Western blotting analysis was performed as described previously. After separation using SDS‐PAGE then transfer to PVDF membranes, the target proteins were detected after incubating with primary antibodies for CDK1 (Abcam: ab18, 1:1000), E2F1 (Abcam: ab179445, 1:1000), phosphorylated Akt (CST: 9271, 1:1000), Akt (CST: 9272, 1:1000), phosphorylated ERK1/2 (Abcam: ab201015, 1:1000), ERK1/2 (Abcam: ab36991, 1:1000) and ERα (Santa Cruz: sc‐8005, 1:200). The membranes were then incubated with the corresponding secondary antibody at 37°C for 1 hour Finally, the immunoreactive bands were developed using SuperSignal West Femto Maximum sensitivity substrate (Thermo Fisher Scientific), and the images analysed using Quantity One Software (Bio‐Rad). The PI3K‐Akt and ERK signalling pathways were involved in the regulation of cell proliferation by BAK. Two methods of analysis were conducted to verify this. Firstly, the cells were treated with BAK or BAK plus the Akt or ERK inhibitors PI‐103 and SCH772984, respectively. Following culture of the cells, Western blotting was used to ascertain if Akt or ERK1/2 were phosphorylated and to verify the association between BAK and the activation of the Akt and ERK1/2 pathways. Secondly, ERα siRNA (ERα si‐R) was used to knockdown estrogen receptor in the target cells, which were then further cultured for 48 hours with BAK. Meanwhile, the non‐treatment group was used as the control. Finally, the protein expression levels of CDK1 and phosphorylated and total Akt (p/t‐Akt) were detected using Western blotting so as to confirm the involvement of the ERα/PI3K‐Akt/ERK axis signalling pathways in cell proliferation by BAK stimulation.

E2F1 [5] = assay: Western blotting for E2F1 protein; assay type: cell-based, rat; settings: BAK 1 to 10 µmol/L for 3 d
Protocol: Western blotting analysis was performed as described previously. After separation using SDS‐PAGE then transfer to PVDF membranes, the target proteins were detected after incubating with primary antibodies for CDK1 (Abcam: ab18, 1:1000), E2F1 (Abcam: ab179445, 1:1000), phosphorylated Akt (CST: 9271, 1:1000), Akt (CST: 9272, 1:1000), phosphorylated ERK1/2 (Abcam: ab201015, 1:1000), ERK1/2 (Abcam: ab36991, 1:1000) and ERα (Santa Cruz: sc‐8005, 1:200). The membranes were then incubated with the corresponding secondary antibody at 37°C for 1 hour Finally, the immunoreactive bands were developed using SuperSignal West Femto Maximum sensitivity substrate (Thermo Fisher Scientific), and the images analysed using Quantity One Software (Bio‐Rad).

Akt = assay: Western blotting for phosphorylated/total Akt; assay type: cell-based, rat
Protocol: as §2, with “Following culture of the cells, Western blotting was used to ascertain if Akt or ERK1/2 were phosphorylated and to verify the association between BAK and the activation of the Akt and ERK1/2 pathways. Secondly, ERα siRNA (ERα si‐R) was used to knockdown estrogen receptor in the target cells, which were then further cultured for 48 hours with BAK. Meanwhile, the non‐treatment group was used as the control.” left out

ERK1/2 = assay: Western blotting for phosphorylated/total ERK1/2; assay type: cell-based, rat
Protocol: as §2, with “Following culture of the cells, Western blotting was used to ascertain if Akt or ERK1/2 were phosphorylated and to verify the association between BAK and the activation of the Akt and ERK1/2 pathways. Secondly, ERα siRNA (ERα si‐R) was used to knockdown estrogen receptor in the target cells, which were then further cultured for 48 hours with BAK. Meanwhile, the non‐treatment group was used as the control.” left out

MKI67 [6] = assay: Immunofluorescent staining of MKI67 in chondrocytes; assay type: cell-based, rat; settings: 10 µmol/L, relative to control
[7] = test system: knee articular cartilage defect; assay: Rat knee articular cartilage defect model, histological evaluation; assay type: in vivo, Sprague‐Dawley (SD) rats; settings: Matrigel with bakuchiol 100 µmol/L implanted locally
Protocol: (§3) Animal experiments were conducted in accordance with protocols approved by the Chongqing University Animal Care and Use Committee. For the cartilage injury model, a 0.5‐mm‐deep thickness defect was created through the articular cartilage and subchondral bone of the patellar groove of Sprague‐Dawley (SD) rats (200‐250 g) using a micro‐electrical drill. Matrigel mixed with bakuchiol (100 µmol/L) was implanted locally to fill the cartilage defect. Articular cartilage samples were harvested after 1 and 2 weeks post‐implantation for macroscopic and histological evaluation, with analysis by micro‐CT. The harvested samples were embedded in paraffin, sectioned for 10 μm thickness and then stained with haematoxylin and eosin (H&E), Safranin‐O green and Alcian blue. The sections were scored histologically in accordance with previous studies.9, 17, 18 The relative area of each defect (Figure 6: area within the dashed line) in the different groups was measured using Image J. The relative content of cartilage matrix was ascertained from the degree of Safranin staining (Red area) and GAG content by Alcian blue staining (Positive blue area). All morphological measurements were performed using Image J. The mean histological scores for each group were statistically analysed, with t tests performed between the BAK‐treated group and control. In addition, the histological immunofluorescent staining for Ki67, p‐Akt, and p‐ERK was performed to verify the in vivo mechanisms of BAK on cell proliferation.

Ki67, p‐ERK and p‐Akt = assay: Immunofluorescent staining of Ki67, p-Akt, p-ERK at the defect site; assay type: in vivo, Sprague‐Dawley (SD) rats; settings: 1 and 2 weeks post-injury
Protocol: as §3, with “In addition, the histological immunofluorescent staining for Ki67, p‐Akt, and p‐ERK was performed to verify the in vivo mechanisms of BAK on cell proliferation.” left out

estrogen receptor = test system: estrogen receptor; parameters: method as in earlier work; settings: ref 11 (Lim et al); cited from earlier work

## C=C[C@@](C)(/C=C/c1ccc(O)cc1)CCC=C(C)C [BAK, bakuchiol]
Rat chondrocytes; 10 µmol/L, 7 days of culture
  cell viability vs control: promoted cell viability
Rat chondrocytes; 100 µmol/L
  toxicity in the cells: clear toxicity
Rat chondrocytes; 1 to 100 µmol/L, after 24 hours
  cytotoxic effects on chondrocytes: no cytotoxic effects
Rat chondrocytes; 5, 10 and 20 µmol/L, control 0.1% DMSO
  proliferation of chondrocytes vs control: increased proliferation significantly
Rat chondrocytes; Rattus norvegicus, Chondrocyte, CCK8, chondrocytes, 24 h, Figure 1A, read-out: EC50 of BAK
  EC50: 8.9 µM
Rat chondrocytes; Rattus norvegicus, Chondrocyte, CCK8, chondrocytes, Figure S1, read-out: IC50 (toxicity in the cells)
  IC50: 48.5 µM
Rat chondrocytes; chondrocytes
  BAK concentration in the medium with significant cytotoxicity: > 20 µmol/L
chondrocytes
  cell proliferation (EdU staining): significantly promoted cell proliferation
CDK1 [1]
  mRNA level of CDK1: significantly up‐regulated
E2F1 [2]
  mRNA level of E2F1: significantly up‐regulated
MKI67 [3]
  mRNA level of MKI67: significantly up‐regulated
CDK1 [4]; 10 µmol/L BAK, Figure 4
  CDK1 protein synthesis: significantly stimulated CDK1 protein synthesis
CDK1 [4]; BAK 1 to 10 µmol/L for 3 d
  CDK1 protein synthesis: stimulated CDK1 protein synthesis
E2F1 [5]
  E2F1 protein (translation level): up‐regulated E2F1 at the translation level
Akt; 10 µmol/L BAK
  ratio of phosphorylated/total Akt (p/t-Akt): improved the ratios
ERK1/2; 10 µmol/L BAK
  ratio of phosphorylated/total ERK1/2 (p/t-ERK1/2): improved the ratios
MKI67 [6]
  MKI67 protein synthesis (immunofluorescent staining): clearly promoted MKI67 protein synthesis
[7]; 1 week
  histological score of the defects: 3.60 ± 0.54
[7]; 2 weeks
  histological score of the defects: 5.40 ± 0.55
[7]; Alcian blue
  content of GAG vs control: clearly different
Ki67, p‐ERK and p‐Akt
  expression of Ki67, p-ERK and p-Akt in vivo: promoted the expression
Estrogen receptor
  estrogen receptor-binding affinity: high estrogen receptor‐binding affinity

## Oc1cccc(-c2nc(N3CCOCC3)c3oc4ncccc4c3n2)c1 [PI‐103]
CDK1 [4]
  CDK1 protein levels in chondrocytes: reduced
Akt; 1 µmol/L PI-103 added to 10 µmol/L BAK
  p/t-Akt ratio in chondrocytes: reduced

## O=C(Nc1ccc2[nH]nc(-c3ccncc3)c2c1)[C@@H]1CCN(CC(=O)N2CCN(c3ccc(-c4ncccn4)cc3)CC2)C1 [SCH772984]
CDK1 [4]
  CDK1 protein levels in chondrocytes: reduced
ERK1/2; 1 µmol/L SCH772984 added to 10 µmol/L BAK
  p/t-ERK1/2 ratio in chondrocytes: reduced
